Results reported in PMC6753678, “Fueling Open Innovation for Malaria Transmission-Blocking Drugs: Hundreds of Molecules Targeting Early Parasite Mosquito Stages” (Frontiers in Microbiology, 2019).
Values joined by “and” are separate entries in the source; they are usually repeats but may differ in a detail not shown here. Equal values may be shown once. Read-outs that look alike come from different tables or passages of the source.

Assays:
[1] = system: P. berghei ookinete development; conditions: for IC50: read-out: IC50 Pb ODA, dose response, at least triplicate
HepG2 cells [2] = conditions: HepG2; ref Miguel-Blanco et al 2017; cited from earlier work
[3] = system: P. falciparum female gametocytes; test: P. falciparum Dual Gamete Formation Assay (Pf DGFA), female readout; conditions: for Pf DGFA Female, Expt 1 / Pf DGFA Female, Expt 2 / Pf DGFA Female, Expt 3 / Pf DGFA Female, Expt 4: 1µM; for % inhibition Pf DGFA (female) 1 μM (±SEM): mean of four experiments; for inhibition at 1 µM: Plasmodium falciparum, read-out: % inhibition Pf DGFA (female) 1 μM (±SEM), 1 μM, mean of four experiments
[4] = system: P. falciparum female gametocytes; design: method as in Miguel-Blanco et al 2017; conditions: ref Miguel-Blanco et al 2017; read-out: Pf FGAA IC50; cited from earlier work
[5] = system: P. falciparum female gametocytes; test: P. falciparum female gametogenesis assay (Pf FGAA); conditions: 1: YES; 0: NO
[6] = system: P. berghei oocyst intensity in Anopheles stephensi mosquitoes; test: P. berghei standard membrane feeding assay (Pb SMFA); conditions: for inhibition at 1 µM: read-out: % inhibition Pb SMFA 1 μM (±SEM), inhibition of oocyst intensity at 1 μM
[7] = system: 3D7-strain P. falciparum asexual parasites; test: P. falciparum asexual growth inhibition assay (Pf GIA); format: cell-based, Plasmodium falciparum; conditions: Plasmodium falciparum
Procedure, shortened: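 Parasites at 0.25% parasitemia, 2% hematocrit in Albumax-supplemented RPMI were exposed to compounds in dose response for 72 h at 37°C under 5% CO2/5% O2. Viability was read as LDH activity (NBT/diaphorase, A650 after freeze-thaw). Percent inhibition was calculated against chloroquine and DMSO controls, mean of three biological replicates.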

[8] = system: P. falciparum male gametocytes; test: P. falciparum Dual Gamete Formation Assay (Pf DGFA), male readout; conditions: for Pf DGFA Male, Expt 1 / Pf DGFA Male, Expt 2 / Pf DGFA Male, Expt 3 / Pf DGFA Male, Expt 4: 1µM; for % inhibition Pf DGFA (male) 1 μM (±SEM): mean of four experiments; for inhibition at 1 µM: Plasmodium falciparum, read-out: % inhibition Pf DGFA (male) 1 μM (±SEM), 1 μM, mean of four experiments
[9] = system: P. berghei ookinete development; test: microbe, parasite or virus in culture; conditions: Plasmodium berghei
HepG2 cells [10] = test: HepG2 cytotoxicity assay; conditions: for Unified cytotox: HepG2 values of the three screens unified; for IC50: Homo sapiens, HepG2, 48 h, read-out: IC50 HepG2
Procedure, shortened: (§1)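 Percent inhibition derived from fluorescent viability readout, normalised to DMSO (negative) and 50 μM doxorubicin (positive). Compound incubation lasted 48 h at 37°C, 5% CO2, with 2,500 HepG2 cells/well in MEM plus 10% FBS and 1% NEAA.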

HepG2 cytotoxicity assay = conditions: human, HepG2 cells
Procedure, shortened: as §1

[11] = 3D7, dose response confirmation, read-out: Pf asexual growth inhibition assays IC50
[12] = 3D7, 72 h, LDH readout, read-out: IC50 Pf Asexual
[13] = read-out: % inhibition, Replicate A
[14] = read-out: % inhibition, Replicate B
[15] = read-out: IC50 Pb ODA, dose response, at least triplicate
[16] = read-out: Pb ODA IC50, this manuscript

For `Cn1c(Sc2ncnc3sccc23)nc2ccccc21` [TCMDC-124514], the “Is compound selective in assay? Pb ODA active?” value ([1]; 1: YES, 0: NO) is listed as 1 (1: YES), the IC50 [1] is listed as > 0.25 µM and 0.397 µM and the “HepG2 cytoxicity (Pf FGAA screen)” value (HepG2 cells [2]) is listed as over 100 µM. For the same compound, the “Pf DGFA Female, Expt 1” value [3] was 99.03, the “Pf DGFA Female, Expt 2” value [3] was 87.98 and the “Pf DGFA Female, Expt 3” value [3] was 99.79. For the same compound, the “Pf DGFA Female, Expt 4” value [3] was 75.95, the “% inhibition Pf DGFA (female) 1 μM (±SEM)” value [3] was 90.69% and the inhibition at 1 µM [3] was 90.7%. For the same compound, the IC50 [4] was 1.25 µM, the “Is compound selective in assay? Pf FGAA active?” value [5] was 1 (1: YES) and the “% inhibition Pb SMFA 1 μM (±SEM)” value ([6]; inhibition of oocyst intensity at 1 μM) was 9.1%. The inhibition at 1 µM [6] was 9.07%, the IC50 [7, 11] was 0.187 µM and the IC50 [7, 12] was 0.188 µM. For the same compound, the “Pf DGFA Male, Expt 1” value [8] was 96.96, the “Pf DGFA Male, Expt 2” value [8] was 90.56 and the “Pf DGFA Male, Expt 3” value [8] was 99.40. For the same compound, the “Pf DGFA Male, Expt 4” value [8] was 95.50, the “% inhibition Pf DGFA (male) 1 μM (±SEM)” value [8] was 95.61% and the inhibition at 1 µM [8] was 95.6%. The inhibition at 1 µM [9, 13] was 109%, the inhibition at 1 µM [9, 14] was 101% and the IC50 [9, 15] was 0.398 µM. It also gave an IC50 [9, 16] of 0.4 µM, a Unified cytotox (HepG2 cells [10]) of 100.00 µM and an IC50 (HepG2 cells [10]) of over 100 µM.
With `COc1ccc2ncc(F)c(CCN3CCC(NC(=O)c4ccc5c(n4)NC(=O)CS5)C(O)C3)c2n1` (stereo not drawn) [TCMDC-135907] the “Is compound selective in assay? Pb ODA active?” value ([1]; 1: YES, 0: NO) was 1 (1: YES), the IC50 [1] was 0.381 µM and the “Pf DGFA Female, Expt 1” value [3] was 25.41. The “Pf DGFA Female, Expt 2” value [3] was -9.01, the “Pf DGFA Female, Expt 3” value [3] was -10.92 and the “Pf DGFA Female, Expt 4” value [3] was -26.87. It also gave an inhibition at 1 µM [6] of 56.2%, an IC50 [7, 11] of 2.02 µM and an IC50 [7, 12] of 2.02 µM. The “Pf DGFA Male, Expt 1” value [8] was 27.09, the “Pf DGFA Male, Expt 2” value [8] was -8.08 and the “Pf DGFA Male, Expt 3” value [8] was -8.79. The “Pf DGFA Male, Expt 4” value [8] was 59.50, the inhibition at 1 µM [8] was 17.4% and the inhibition at 1 µM [9, 13] was 99.8%. It also gave an inhibition at 1 µM [9, 14] of 69.5%, an IC50 [9, 15] of over 0.25 µM and an IC50 [9, 16] of 0.38 µM. The IC50 at 48 h (HepG2 cytotoxicity assay) was 42.2 µM, the “HepG2 cytoxicity (Pb ODA, this manuscript)” value (HepG2 cells [10]; HepG2, this manuscript) was 42.17 µM and the Unified cytotox (HepG2 cells [10]) was 42.17 µM. For the same compound, the IC50 (HepG2 cells [10]) was 42.2 µM.
With `CCCCCCCc1c(C)nc2cc(OC)ccc2c1O` [TCMDC-137173, endochin] the “Is compound selective in assay? Pb ODA active?” value [1] was 1 (key: 1: YES; 0: NO), the “Pf DGFA Female, Expt 1” value [3] was 46.16 and the “Pf DGFA Female, Expt 2” value [3] was 7.10. The “Pf DGFA Female, Expt 3” value [3] was 41.06, the “Pf DGFA Female, Expt 4” value [3] was -10.25 and the “% inhibition Pf DGFA (female) 1 μM (±SEM)” value [3] was 21.02%. The inhibition at 1 µM [3] was 21%, the inhibition at 1 µM [6] was 98.4% and the IC50 [7, 11] was 0.035 µM. For the same compound, the IC50 [7, 12] was 0.0352 µM, the “Pf DGFA Male, Expt 1” value [8] was 94.68 and the “Pf DGFA Male, Expt 2” value [8] was 60.36. For the same compound, the “Pf DGFA Male, Expt 3” value [8] was 74.13, the “Pf DGFA Male, Expt 4” value [8] was 77.74 and the “% inhibition Pf DGFA (male) 1 μM (±SEM)” value [8] was 76.7% and 76.73%. It also gave an inhibition at 1 µM [8] of 76.7%, an inhibition at 1 µM [9, 13] of 115% and an inhibition at 1 µM [9, 14] of 101%. The IC50 [9, 15] was under 0.06 µM, the IC50 ([9]; read-out: Pb ODA (this manuscript) IC50 (µM), P. berghei ookinete development assay, this manuscript) was 0.0248 µM and the IC50 ([9]; read-out: Pb Ookinete development assay IC50 (µM), dose response confirmation) was 0.025 µM. The “Pb ODA (this manuscript) HepG2 cytoxicity” value (HepG2 cells [10]; HepG2 cytotoxicity listed with the Pb ODA data set (this manuscript)) was 100.00 µM and the IC50 (HepG2 cells [10]) was over 100 µM.
